Patent US8759366B2, “Aminopyrimidines as SYK inhibitors” (Merck Sharp & Dohme Corp., priority 2009, dated 2014)
Structures can show the parent of a compound that is named as a salt.

The compounds below were run against rhSYK (Homo sapiens (Human), UniProt P43405). Details: read-out: rhSYK activity.
With `Cc1cc(Nc2nccc(C(F)(F)F)n2)cc(-c2cnc(C3(O)CCC(N(C)C)CC3)s2)c1` (stereo not shown) [Example 4C-33] the IC50 was under 100 nM. `OCCC(O)(CCO)c1ncc(-c2cccc(Nc3nccc(C(F)(F)F)n3)c2)s1` [Example 5, 3-[5-(3-{[4-(trifluoromethyl)pyrimidin-2-yl]amino}phenyl)-1,3-thiazol-2-yl]pentane-1,3,5-triol] gave an IC50 of 100 to 1000 nM. `Cc1cc(Nc2nccc(C(F)(F)F)n2)cc(-c2cnc(C(O)C(F)(F)F)s2)c1` (stereo not shown) [Example 6, 2,2,2-trifluoro-1-[5-(3-methyl-5-{[4-(trifluoromethyl)pyrimidin-2-yl]amino}phenyl)-1,3-thiazol-2-yl]ethanol] showed an IC50 of under 100 nM. With `O=C(c1ncc(-c2cccc(Nc3nccc(C(F)(F)F)n3)c2)s1)C(F)(F)F` [Example 6-1] the IC50 was under 100 nM. For `CC1(C)C(O)C(C)(C)C1(O)c1ncc(-c2cccc(Nc3nccc(C(F)(F)F)n3)c2)s1` (stereo not shown) [Example 6-10], the IC50 was 100 to 1000 nM. `Cc1cc(Nc2nccc(C(F)(F)F)n2)cc(-c2cnc(C3(O)CCC(=O)CC3)s2)c1` [Example 7, 4-hydroxy-4-[5-(3-methyl-5-{[4-(trifluoromethyl)pyrimidin-2-yl]amino}phenyl)-1,3-thiazol-2-yl]cyclohexanone] gave an IC50 of under 100 nM. For `Cc1cc(Nc2nccc(C(F)(F)F)n2)cc(-c2cnc(C3(O)CCCC(=O)C3(C)C)s2)c1` (stereo not shown) [Example 8B-1], the IC50 was under 100 nM. Work on `Cc1cc(Nc2nccc(C(F)(F)F)n2)cc(-c2cnc(C3(O)CCCC(O)C3(C)C)s2)c1` (stereo not shown) [Example 8B-3] yielded an IC50 of under 100 nM. In the case of `Cc1cc(Nc2nccc(C(F)(F)F)n2)cc(-c2cnc(C(C)(O)c3ccc(C(C)(C)O)cc3)s2)c1` (stereo not shown) [Example 9-1], the IC50 is reported as 100 to 1000 nM. For `Cc1cc(Nc2nccc(C(F)(F)F)n2)cc(-c2cnc(C3(O)CCNC(=O)CC3)s2)c1` (stereo not shown) [Example 10, 5-Hydroxy-5-[5-(3-methyl-5-{[4-(trifluoromethyl)pyrimidin-2-yl]amino}phenyl)-1,3-thiazol-2-yl]azepan-2-one], the IC50 was under 100 nM. Compound `Cc1cc(Nc2nccc(C(F)(F)F)n2)cc(-c2cnc(C3=CC(=O)NCCC3)s2)c1` [Example 10B-2] has an IC50 of under 100 nM. Work on `O=C(c1ncc(-c2cccc(Nc3nccc(C(F)(F)F)n3)c2)s1)C1CC1` [Example 11, Cyclopropyl[5-(3-{[4-(trifluoromethyl)pyrimidin-2-yl]amino}phenyl)-1,3-thiazol-2-yl]methanone] yielded an IC50 of under 100 nM. In the case of `OC(c1ncc(-c2cccc(Nc3nccc(C(F)(F)F)n3)c2)s1)(C1CC1)C(F)(F)F` (stereo not shown) [Example 12, 1-Cyclopropyl-2,2,2-trifluoro-1-[5-(3-{[4-(trifluoromethyl)pyrimidin-2-yl]amino}phenyl)-1,3-thiazol-2-yl]ethanol], the IC50 is reported as under 100 nM. In the case of `Cc1cc(Nc2nccc(C(F)(F)F)n2)cc(-c2cnc(C(C)C)s2)c1` [Example 13, N-{3-methyl-5-[2-(1-methylethyl)-1,3-thiazol-5-yl]phenyl}-4-(trifluoromethyl)pyrimidin-2-amine], the IC50 is reported as under 100 nM. For `CC(C)(C)OC(=O)N1CCC(C(C)(O)c2ncc(-c3cccc(Nc4nccc(C(F)(F)F)n4)c3)s2)CC1` (stereo not shown) [Example 15(1), tert-butyl 4-{1-hydroxy-1-[5-(3-{[4-(trifluoromethyl)pyrimidin-2-yl]amino}phenyl)-1,3-thiazol-2-yl]ethyl}piperidine-1-carboxylate], the IC50 was 100 to 1000 nM. With `CC(O)(c1ncc(-c2cccc(Nc3nccc(C(F)(F)F)n3)c2)s1)C1CCNCC1` (stereo not shown) [Example 15(2), 1-(piperidin-4-yl)-1-[5-(3-{[4-(trifluoromethyl)pyrimidin-2-yl]amino}phenyl)-1,3-thiazol-2-yl]ethanol] the IC50 was under 100 nM. Compound `CC(=O)Nc1cc(Nc2nccc(C(F)(F)F)n2)cc(-c2cnc(C3(O)CCC3)s2)c1` [Example 16, N-(3-[2-(1-hydroxycyclobutyl)-1,3-thiazol-5-yl]-5-{[4-(trifluoromethyl)pyrimidin-2-yl]amino}phenyl)acetamide] has an IC50 of under 100 nM. `Nc1cc(Nc2nccc(C(F)(F)F)n2)cc(-c2cnc(C3(O)CCC3)s2)c1` [Example 17, 1-[5-(3-amino-5-{[4-(trifluoromethyl)pyrimidin-2-yl]amino}phenyl)-1,3-thiazol-2-yl]cyclobutanol] showed an IC50 of under 100 nM. Compound `O=[N+]([O-])c1cc(Nc2nccc(C(F)(F)F)n2)cc(-c2cnc(C3(O)CCC3)s2)c1` [Example 18, 1-[5-(3-nitro-5-{[4-(trifluoromethyl)pyrimidin-2-yl]amino}phenyl)-1,3-thiazol-2-yl]cyclobutanol] has an IC50 of 100 to 1000 nM. For `O=C(Nc1cc(Nc2nccc(C(F)(F)F)n2)cc(-c2cnc(C3(O)CCC3)s2)c1)NC1CCCC1` [Example 19, 1-cyclopentyl-3-(3-[2-(1-hydroxycyclobutyl)-1,3-thiazol-5-yl]-5-{[4-(trifluoromethyl)pyrimidin-2-yl]amino}phenyl)urea], the IC50 was under 100 nM. Work on `CC(C)(CO)c1ncc(-c2cccc(Nc3nccc(C(F)(F)F)n3)c2)s1` [Example 21, 2-methyl-2-[5-(3-{[4-(trifluoromethyl)pyrimidin-2-yl]amino}phenyl)-1,3-thiazol-2-yl]propan-1-ol] yielded an IC50 of under 100 nM. For `OC(c1ncc(-c2cc(Nc3nccc(C(F)(F)F)n3)cc(N3CCOCC3)c2)s1)(C1CC1)C1CC1` [Example 24, dicyclopropyl{5-[3-(morpholin-4-yl)-5-{[4-(trifluoromethyl)pyrimidin-2-yl]amino}phenyl]-1,3-thiazol-2-yl}methanol], the IC50 was under 100 nM. With `Cc1cc(Nc2nccc(C(F)(F)F)n2)cc(-c2cnc([C@]3(F)CC[C@@H](C(=O)O)CC3)s2)c1` [Example 26, cis-4-Fluoro-4-[5-(3-methyl-5-{[4-(trifluoromethyl)pyrimidin-2-yl]amino}phenyl)-1,3-thiazol-2-yl]cyclohexanecarboxylic acid] the IC50 was under 100 nM. For `OC1(c2ncc(-c3cc(NCC(F)(F)F)cc(Nc4nccc(C(F)(F)F)n4)c3)s2)CCC1` [Example 27, 1-[5-(3-[(2,2,2-trifluoroethyl)amino]-5-{[4-(trifluoromethyl)pyrimidin-2-yl]amino}phenyl)-1,3-thiazol-2-yl]cyclobutanol], the IC50 was under 100 nM. `OC1(c2ncc(-c3cc(Nc4nccc(C(F)(F)F)n4)cc(C(F)F)c3)s2)CCC1` [Example 28, 1-{5-[3-(difluoromethyl)-5-{[4-(trifluoromethyl)pyrimidin-2-yl]amino}phenyl]-1,3-thiazol-2-yl}cyclobutanol] gave an IC50 of under 100 nM. `C#Cc1cc(Nc2nccc(C(F)(F)F)n2)cc(-c2cnc(C(C)(C)O)s2)c1` [Example 29, 2-[5-(3-ethynyl-5-{[4-(trifluoromethyl)pyrimidin-2-yl]amino}phenyl)-1,3-thiazol-2-yl]propan-2-ol] showed an IC50 of under 100 nM. Work on `CCc1cc(Nc2nccc(C(F)(F)F)n2)cc(-c2cnc(C(C)(C)O)s2)c1` [Example 30, 2-[5-(3-ethyl-5-{[4-(trifluoromethyl)pyrimidin-2-yl]amino}phenyl)-1,3-thiazol-2-yl]propan-2-ol] yielded an IC50 of under 100 nM. `CC(C)(O)c1ncc(-c2cc(Nc3nccc(C(F)(F)F)n3)cc(C3CC3)c2)s1` [Example 31, 2-[5-(3-cyclopropyl-5-{[4-(trifluoromethyl)pyrimidin-2-yl]amino}phenyl)-1,3-thiazol-2-yl]propan-2-ol] gave an IC50 of under 100 nM. Work on `CCOC(=O)C1CC=C(c2ncc(-c3cc(C)cc(Nc4nccc(C(F)(F)F)n4)c3)s2)CC1` (stereo not shown) [Example 34, ethyl 4-[5-(3-methyl-5-{[4-(trifluoromethyl)pyrimidin-2-yl]amino}phenyl)-1,3-thiazol-2-yl]cyclohex-3-ene-1-carboxylate] yielded an IC50 of 100 to 1000 nM. Compound `CCOC(=O)C1CCC(c2ncc(-c3cc(C)cc(Nc4nccc(C(F)(F)F)n4)c3)s2)CC1` (stereo not shown) [Example 35, ethyl 4-[5-(3-methyl-5-{[4-(trifluoromethyl)pyrimidin-2-yl]amino}phenyl)-1,3-thiazol-2-yl]cyclohexanecarboxylate] has an IC50 of 100 to 1000 nM. `Cc1cc(Nc2nccc(C(F)(F)F)n2)cc(-c2cnc(C3CCC(C(=O)O)CC3)s2)c1` (stereo not shown) [Example 36, 4-[5-(3-methyl-5-{[4-(trifluoromethyl)pyrimidin-2-yl]amino}phenyl)-1,3-thiazol-2-yl]cyclohexanecarboxylic acid] gave an IC50 of under 100 nM. With `Cc1cc(Nc2nccc(C(F)(F)F)n2)cc(-c2cnc([C@]3(O)CC[C@@H](c4noc(=O)[nH]4)CC3)s2)c1` [Example 39, 3-{cis-4-Hydroxy-4-[5-(3-methyl-5-{[4-(trifluoromethyl)pyrimidin-2-yl]amino}phenyl)-1,3-thiazol-2-yl]cyclohexyl}-1,2,4-oxadiazol-5(4H)-one] the IC50 was under 100 nM. `COC1(c2ncc(-c3cc(C)cc(Nc4nccc(C(F)(F)F)n4)c3)s2)CCC(C(=O)O)CC1` (stereo not drawn) [Example 40(1), 2-({3-[2-(cis-4-Carboxy-1-methoxycyclohexyl)-1,3-thiazol-5-yl]-5-methylphenyl}amino)-4-(trifluoromethyl)pyrimidin-1-ium trifluoroacetate] showed an IC50 of under 100 nM. In the case of `Cc1cc(Nc2nccc(C(F)(F)F)n2)cc(-c2cnc(C3(O)CCC(N)(C(=O)O)CC3)s2)c1` (stereo not shown) [Example 41, 1-amino-4-hydroxy-4-[5-(3-methyl-5-{[4-(trifluoromethyl)pyrimidin-2-yl]amino}phenyl)-1,3-thiazol-2-yl]cyclohexanecarboxylic acid], the IC50 is reported as under 100 nM. With `Cc1cc(Nc2nccc(C(F)(F)F)n2)cc(-c2cnc(C3(O)CCN(C(=O)OC(C)(C)C)CC3)s2)c1` [Example 45, tert-butyl 4-hydroxy-4-[5-(3-methyl-5-{[4-(trifluoromethyl)pyrimidin-2-yl]amino}phenyl)-1,3-thiazol-2-yl]piperidine-1-carboxylate] the IC50 was under 100 nM. With `Cc1cc(Nc2nccc(C(F)(F)F)n2)cc(-c2cnc(C3(O)CCNCC3)s2)c1` [Example 46, 4-[5-(3-methyl-5-{[4-(trifluoromethyl)pyrimidin-2-yl]amino}phenyl)-1,3-thiazol-2-yl]piperidin-4-ol] the IC50 was under 100 nM. `Cc1cc(Nc2nccc(C(F)(F)F)n2)cc(-c2cnc(C3(O)CCN(C(N)=O)CC3)s2)c1` [Example 47, 4-hydroxy-4-[5-(3-methyl-5-{[4-(trifluoromethyl)pyrimidin-2-yl]amino}phenyl)-1,3-thiazol-2-yl]piperidine-1-carboxamide] showed an IC50 of under 100 nM.
